Read-outs that look alike come from different tables or passages of the source.
Key:
[1] = target: T1, mTOR (Homo sapiens, UniProt P42345); assay: Biochemical assay for m-TOR by TR-FRET
T1 construct: purchased Invitrogen Corporation (Carlsbad/Calif., USA) PV4753
Summary of the method: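 mTOR (0.5 nM) phosphorylates GFP-4EBP1 (400 nM) with 8 μM ATP at rt in 50 mM HEPES pH 7.5, 10 mM MnCl2, 50 mM NaCl, 1 mM EGTA, 1 mM DTT; compounds 0.003–10 μM final. EDTA stop with Tb-anti-p4EBP1[pT46] antibody (0.5 nM); TR-FRET read after 15 min against no-enzyme and vehicle controls.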

[2] = Parallel Artificial Membrane Permeability Assay (PAMPA) at pH 6.8; assay type: physicochemical
Summary of the method: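 PAMPA permeability measured at pH 6.8 following the Wohnsland and Faller method; value reported as log Pe.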

[3] = system: PKB Ser473 phosphorylation in Rat1-myr-HA-p110 alpha cells; assay: Reverse protein array, PKB Ser473 phosphorylation in Rat1-myr-HA-p110 alpha cells; assay type: cell-based; conditions: Rattus norvegicus, 0.5 h, 30 minutes compound incubation, read-out: p-PKB/IC50_alpha

T1 sequence (P42345 1360-2549 limits assumed): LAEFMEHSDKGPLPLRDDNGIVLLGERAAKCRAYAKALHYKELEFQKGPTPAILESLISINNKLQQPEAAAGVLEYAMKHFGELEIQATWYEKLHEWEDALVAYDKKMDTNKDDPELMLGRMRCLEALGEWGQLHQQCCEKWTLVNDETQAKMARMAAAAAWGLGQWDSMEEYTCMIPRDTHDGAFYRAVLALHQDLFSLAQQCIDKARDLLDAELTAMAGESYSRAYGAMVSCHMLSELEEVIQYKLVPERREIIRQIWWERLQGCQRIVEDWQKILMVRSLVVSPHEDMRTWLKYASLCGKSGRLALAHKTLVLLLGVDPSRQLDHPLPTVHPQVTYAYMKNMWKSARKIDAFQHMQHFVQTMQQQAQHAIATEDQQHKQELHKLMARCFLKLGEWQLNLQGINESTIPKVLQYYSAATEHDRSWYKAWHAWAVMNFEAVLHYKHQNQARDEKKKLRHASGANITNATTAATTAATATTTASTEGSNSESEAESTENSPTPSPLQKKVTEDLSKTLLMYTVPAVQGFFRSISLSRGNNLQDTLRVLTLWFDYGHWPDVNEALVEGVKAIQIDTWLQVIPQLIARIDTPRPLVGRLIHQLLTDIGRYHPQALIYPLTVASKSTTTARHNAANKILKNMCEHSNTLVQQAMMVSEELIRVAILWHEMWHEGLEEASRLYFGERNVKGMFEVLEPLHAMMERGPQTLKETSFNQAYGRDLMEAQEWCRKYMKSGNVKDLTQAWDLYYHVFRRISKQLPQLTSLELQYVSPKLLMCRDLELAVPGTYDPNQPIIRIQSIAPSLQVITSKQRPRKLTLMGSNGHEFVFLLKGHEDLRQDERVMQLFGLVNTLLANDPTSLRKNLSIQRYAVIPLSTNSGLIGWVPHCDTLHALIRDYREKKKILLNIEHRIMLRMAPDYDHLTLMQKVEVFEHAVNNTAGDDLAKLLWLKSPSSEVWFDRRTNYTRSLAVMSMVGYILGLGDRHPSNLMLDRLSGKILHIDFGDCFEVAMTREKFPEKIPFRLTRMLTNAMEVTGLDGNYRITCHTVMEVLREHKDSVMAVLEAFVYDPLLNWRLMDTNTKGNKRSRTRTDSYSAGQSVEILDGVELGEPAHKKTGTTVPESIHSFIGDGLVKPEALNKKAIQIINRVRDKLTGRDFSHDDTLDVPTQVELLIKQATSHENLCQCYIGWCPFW

| IC50 ([1]; read-out: EPK_mTOR/IC50) [µM] | HT-Perm logPe pH6.8 [2] | IC50 [3] [µM] | IC50 ([1]; read-out: mTOR/IC50) [µM] | HT-perm/logPe pH6.8 [2] | Structure (SMILES) |
| --- | --- | --- | --- | --- | --- |
| 0.018 | −3.7 | < 0.00457 | – | – | COCCOc1ccc(-n2c(=O)n(C)c3cnc4ccc(-c5cnc(N)c(C(F)(F)F)c5)cc4c32)c(C)n1 [Example 13.2, 8-(6-Amino-5-trifluoromethyl-pyridin-3-yl)-1-[6-(2-methoxy-ethoxy)-2-methyl-pyridin-3-yl]-3-methyl-1,3-dihydro-imidazo[4,5-c]quinolin-2-one] |
| – | – | 0.00738 | 0.024 | −3.9 | Cc1ncccc1-n1c(=O)n(C)c2cnc3ccc(-c4cnc5c(ccn5C)c4)cc3c21 [Example 2.14, 3-Methyl-1-(2-methyl-pyridin-3-yl)-8-(1-methyl-1H-pyrrolo[2,3-b]pyridin-5-yl)-1,3-dihydro-imidazo[4,5-c]quinolin-2-one] |
| 0.025 | −4.9 | 0.0411 | – | – | Cc1nc(N2CCC(O)C2)ccc1-n1c(=O)n(C)c2cnc3ccc(-c4cncc(OC(C)C)c4)cc3c21 (stereo not drawn) [Example 27.1, 1-[6-(3-Hydroxy-pyrrolidin-1-yl)-2-methyl-pyridin-3-yl]-8-(5-isopropoxy-pyridin-3-yl)-3-methyl-1,3-dihydro-imidazo[4,5-c]quinolin-2-one] |
| – | – | 0.00868 | 0.025 | −3.9 | CNc1ccc(-c2ccc3ncc4c(c3c2)n(-c2cccnc2OC)c(=O)n4C)cn1 [Example 1.4, 1-(2-Methoxy-pyridin-3-yl)-3-methyl-8-(6-methylamino-pyridin-3-yl)-1,3-dihydro-imidazo[4,5-c]quinolin-2-one] |
| 0.039 | −4.3 | 0.0069 | – | – | CNc1ncc(-c2ccc3ncc4c(c3c2)n(-c2ccc(OCCOC)nc2C)c(=O)n4C)cn1 [Example 13.5, 1-[6-(2-Methoxy-ethoxy)-2-methyl-pyridin-3-yl]-3-methyl-8-(2-methylamino-pyrimidin-5-yl)-1,3-dihydro-imidazo[4,5-c]quinolin-2-one] |
| 0.014 | −4 | 0.005 | – | – | CNc1ccc(-c2ccc3ncc4c(c3c2)n(-c2ccc(OCCOC)nc2C)c(=O)n4C)cn1 [Example 13.3, 1-[6-(2-Methoxy-ethoxy)-2-methyl-pyridin-3-yl]-3-methyl-8-(6-methylamino-pyridin-3-yl)-1,3-dihydro-imidazo[4,5-c]quinolin-2-one] |
| 0.009 | −5.2 | 0.0069 | – | – | Cc1nc(N(C)C)ccc1-n1c(=O)n(C)c2cnc3ccc(-c4cncc(N)c4)cc3c21 [Example 19.5, 8-(5-Amino-pyridin-3-yl)-1-(6-dimethylamino-2-methyl-pyridin-3-yl)-3-methyl-1,3-dihydro-imidazo[4,5-c]quinolin-2-one] |
| – | – | 0.0429 | 0.036 | −3.6 | COc1ccc(-c2ccc3ncc4c(c3c2)n(-c2cccnc2OC)c(=O)n4C)cn1 [Example 1.1, 1-(2-Methoxy-pyridin-3-yl)-8-(6-methoxy-pyridin-3-yl)-3-methyl-1,3-dihydro-imidazo[4,5-c]quinolin-2-one] |
| < 0.003 | −5.2 | < 0.00457 | – | – | CCNc1cc(-c2ccc3ncc4c(c3c2)n(-c2ccc(F)nc2C)c(=O)n4C)cnc1CO [Example 7.9, 8-(5-Ethylamino-6-hydroxymethyl-pyridin-3-yl)-1-(6-fluoro-2-methyl-pyridin-3-yl)-3-methyl-1,3-dihydro-imidazo[4,5-c]quinolin-2-one] |
| – | – | 0.0549 | 0.544 | −3.9 | Cc1cccnc1-n1c(=O)n(C)c2cnc3ccc(-c4cnc5ccccc5c4)cc3c21 [Example 3.8, 3-Methyl-1-(3-methyl-pyridin-2-yl)-8-quinolin-3-yl-1,3-dihydro-imidazo[4,5-c]quinolin-2-one] |
| 0.006 | −3.6 | 0.0048 | – | – | CCNc1cc(-c2ccc3ncc4c(c3c2)n(-c2ccc(N(C)CCOC)nc2C)c(=O)n4C)cnc1C [Example 15.6, 8-(5-Ethylamino-6-methyl-pyridin-3-yl)-1-{6-[(2-methoxy-ethyl)-methyl-amino]-2-methyl-pyridin-3-yl}-3-methyl-1,3-dihydro-imidazo[4,5-c]quinolin-2-one] |
| 0.013 | −4.3 | 0.0115 | – | – | Cc1ccc(-n2c(=O)n(C)c3cnc4ccc(-c5cnc6c(ccn6C)c5)cc4c32)c(C)n1 [Example 14.7, 1-(2,6-Dimethyl-pyridin-3-yl)-3-methyl-8-(1-methyl-1H-pyrrolo[2,3-b]pyridin-5-yl)-1,3-dihydro-imidazo[4,5-c]quinolin-2-one] |
| 0.006 | −4.1 | 0.0052 | – | – | CCNc1cc(-c2ccc3ncc4c(c3c2)n(-c2ccc(C)nc2C)c(=O)n4C)cnc1C [Example 14.6, 1-(2,6-Dimethyl-pyridin-3-yl)-8-(5-ethylamino-6-methyl-pyridin-3-yl)-3-methyl-1,3-dihydro-imidazo[4,5-c]quinolin-2-one] |
| – | – | 0.0924 | 0.115 | −3.7 | COc1ccc(-c2ccc3ncc4c(c3c2)n(-c2cccnc2)c(=O)n4C)cn1 [Example 5.4, 8-(6-Methoxy-pyridin-3-yl)-3-methyl-1-pyridin-3-yl-1,3-dihydro-imidazo[4,5-c]quinolin-2-one] |
| – | – | 0.0576 | 0.014 | −3.3 | COc1ncccc1-n1c(=O)n(C)c2cnc3ccc(-c4cnc(N(C)C)nc4)cc3c21 [Example 1.9, 8-(2-Dimethylamino-pyrimidin-5-yl)-1-(2-methoxy-pyridin-3-yl)-3-methyl-1,3-dihydro-imidazo[4,5-c]quinolin-2-one] |
| 0.007 | −4 | < 0.00457 | – | – | CCNc1cc(-c2ccc3ncc4c(c3c2)n(-c2ccc(N(C)CC)nc2C)c(=O)n4C)cnc1C [Example 12.2, 8-(5-Ethylamino-6-methyl-pyridin-3-yl)-1-[6-(ethyl-methyl-amino)-2-methyl-pyridin-3-yl]-3-methyl-1,3-dihydro-imidazo[4,5-c]quinolin-2-one] |
| 0.048 | −5 | 0.0175 | – | – | Cc1nc(N2CC(F)(F)C2)ccc1-n1c(=O)n(C)c2cnc3ccc(-c4cncc(C(C)(C)O)c4)cc3c21 [Example 24.2, 1-[6-(3,3-Difluoro-azetidin-1-yl)-2-methyl-pyridin-3-yl]-8-[5-(1-hydroxy-1-methyl-ethyl)-pyridin-3-yl]-3-methyl-1,3-dihydro-imidazo[4,5-c]quinolin-2-one] |
| 0.01 | −4.1 | 0.0052 | – | – | CCN(C)c1ccc(-n2c(=O)n(C)c3cnc4ccc(-c5ccc(NC)nc5)cc4c32)c(C)n1 [Example 12.1, 1-[6-(Ethyl-methyl-amino)-2-methyl-pyridin-3-yl]-3-methyl-8-(6-methylamino-pyridin-3-yl)-1,3-dihydro-imidazo[4,5-c]quinolin-2-one] |
| 0.048 | −3.8 | 0.039 | – | – | Cc1ccc(-n2c(=O)n(C)c3cnc4ccc(-c5cnc(N(C)C)nc5)cc4c32)c(C)n1 [Example 14.3, 8-(2-Dimethylamino-pyrimidin-5-yl)-1-(2,6-dimethyl-pyridin-3-yl)-3-methyl-1,3-dihydro-imidazo[4,5-c]quinolin-2-one] |
| 0.017 | −4 | 0.0277 | – | – | COCc1ncc(-c2ccc3ncc4c(c3c2)n(-c2ccc(OC)nc2OC)c(=O)n4C)cc1OC [Example 8.12, 1-(2,6-Dimethoxy-pyridin-3-yl)-8-(5-methoxy-6-methoxymethyl-pyridin-3-yl)-3-methyl-1,3-dihydro-imidazo[4,5-c]quinolin-2-one] |
| 0.11 | −6 | 0.0303 | – | – | Cc1nc(F)ccc1-n1c(=O)n(C)c2cnc3ccc(-c4cncc(N)c4)cc3c21 [Example 7.16, 8-(5-Amino-pyridin-3-yl)-1-(6-fluoro-2-methyl-pyridin-3-yl)-3-methyl-1,3-dihydro-imidazo[4,5-c]quinolin-2-one] |
| 0.013 | −3.6 | < 0.00457 | – | – | CCNc1cc(-c2ccc3ncc4c(c3c2)n(-c2ccc(OC)nc2Cl)c(=O)n4C)cnc1C [Example 18.1, 1-(2-Chloro-6-methoxy-pyridin-3-yl)-8-(5-ethylamino-6-methyl-pyridin-3-yl)-3-methyl-1,3-dihydro-imidazo[4,5-c]quinolin-2-one] |
| 0.053 | −3.8 | 0.0218 | – | – | CCNc1cc(-c2ccc3ncc4c(c3c2)n(-c2cnc(F)cc2C)c(=O)n4C)cnc1C [Example 16.2, 8-(5-Ethylamino-6-methyl-pyridin-3-yl)-1-(6-fluoro-4-methyl-pyridin-3-yl)-3-methyl-1,3-dihydro-imidazo[4,5-c]quinolin-2-one] |
| 0.014 | −4.6 | 0.0162 | – | – | CNc1ncc(-c2ccc3ncc4c(c3c2)n(-c2ccc(C)nc2C)c(=O)n4C)cn1 [Example 14.4, 1-(2,6-Dimethyl-pyridin-3-yl)-3-methyl-8-(2-methylamino-pyrimidin-5-yl)-1,3-dihydro-imidazo[4,5-c]quinolin-2-one] |
| 0.046 | −3.9 | 0.0078 | – | – | COc1ccc(-n2c(=O)n(C)c3cnc4ccc(-c5cnc(CO)c(OC)c5)cc4c32)c(C)n1 [Example 11.8, 8-(6-Hydroxymethyl-5-methoxy-pyridin-3-yl)-1-(6-methoxy-2-methyl-pyridin-3-yl)-3-methyl-1,3-dihydro-imidazo[4,5-c]quinolin-2-one] |

— patent US20100311714A1, “1H-IMIDAZO[4,5-c]QUINOLINONE COMPOUNDS” (priority 2009, published 2010)
